This is an account of results in patent US10907168B2, “Jasmonic acid pathway activator” (MEDICAGO INC., priority 2015, dated 2021).

This experiment concerns C5-1 antibody. Nature of the experiment: C5-1 antibody quantification by ELISA in agroinfiltrated leaves. Conditions: ELISA; 1 mM, leaves treated 24 h before infiltration. Format: in vivo, Nicotiana benthamiana. How it is done:
Forty-two day-old N. benthamiana plants grown in greenhouse were used for the experiments. Each plant was sprayed evenly with 50 ml of 0.5 mM, 1 mM or 2 mM MeJA in water containing 0.1% (v/v) Triton X-100 (Sigma-Aldrich, Mississauga ON, Canada), or with 50 ml of 1 mM arachidonic acid (Girard et al., 2007) in the same solvent, and transferred for seven days in a Conviron growth chamber (Conviron, Winnipeg MB, Canada). Plants sprayed with 50 ml of 0.1% (v/v) Triton X-100 in water were used in parallel as negative controls to avoid confounding effects due to experimental conditions. Two or three 1-cm^2 leaf discs were harvested from the third main stem leaf (see Robert et al., 2013) after seven days, as source material for protein and RNA extraction. The leaf samples were frozen immediately in liquid nitrogen and stored at −80° C. until protein or RNA extraction. Three to five biological (plant) replicates were used for each treatment, to allow for statistical treatment of the data. Two gene vectors were used for the agroinfiltration assays: an engineered pcambia2300 vector encoding the light and heavy chains of C5-1 fused to an N-terminal signal peptide sequence for cellular secretion (see Goulet et al., 2012 for details on gene construct); and the original (“empty”) pcambia2300 binary vector (CAMBIA, Canberra, Australia) as a control for agroinfection. The two binary vectors were electroporated into A. tumefaciens strain LBA4404 and the cultures were maintained in Luria-Bertani (LB) medium supplemented with 50 μg/ml kanamycin and 50 μg/ml rifampicin. For infiltration, bacteria were grown to stable phase at 28° C. to an OD600 of 1.0 and collected by centrifugation at 2,000 g. The bacterial pellets were resuspended in 10 mM 2-[N-morpholino] ethanesulfonic acid] (MES) buffer, pH 5.8, containing 100 μM acetosyringone and 10 mM MgCl2. Leaf infiltration was performed using a needle-less syringe as described earlier (D'Aoust et al., 2009), after mixing the C5-1 antibody (or empty vector) agrobacterial suspension with an equal volume of bacterial suspension carrying a binary vector for the protein silencing suppressor p19 (Voinnet et al., 2003). Infiltrated tissue for molecular characterization was collected six days post-infection (i.e. seven days post-MeJA or arachidonate treatment), unless otherwise indicated. Three to five biological (plant) replicates were used for each treatment to allow for statistical analyses. ELISA plates for C5-1 antibody quantification (Becton Dickinson, Mississauga ON, Canada) were coated with 3.75 μg/ml goat anti-mouse heavy chain-specific IgG1 (Sigma-Aldrich) in 50 mM carbonate buffer (pH 9.0) at 4° C. for 16-18 h. The plates were washed three times in 10 mM phosphate-buffered saline containing 0.1% (v/v) Tween 20 (PBS-T), blocked through a 1-h incubation at 37° C. in 1% (w/v) casein in phosphate-buffered saline (PBS) (Pierce, Rockford Ill., USA), and washed three times in PBS-T. A standard curve was generated for each plate with 0, 4, 8, 16, 24, 32, 40 and 60 ng/ml of purified mouse IgG1 (Sigma-Aldrich). All dilutions (controls and samples) were performed in a control extract obtained from leaf tissue infiltrated with a mock inoculum so that any matrix effect was eliminated. The plates were incubated with protein samples for 1 h at 37° C., washed three times in PBS-T and then incubated with peroxidase-conjugated goat anti-mouse IgG (H+L) antibodies (0.02 μg/ml in blocking solution) (Jackson ImmunoResearch) for 1 h at 37° C. After additional washes with PBS-T, the plates were incubated with the 3,3′,5,5′-tetramethylbenzidine Sure Blue peroxidase substrate (KPL, Gaithersburg Md., USA). The reaction was stopped by the addition of 1 N HCl and the absorbance was read at 450 nm. Three independent (biological) replicates were used for each assay.
(An ELISA detects its analyte on a solid surface through an enzyme-linked reagent.)

As to `CCCCC/C=C\C/C=C\C/C=C\C/C=C\CCCC(=O)O` [arachidonic acid], the C5-1 yield change entry is listed as “No yield increase”.
